Source: patent EP0140958B1, “ONCOLYTIC DRUG COMBINATIONS” (ELFORD, Howard L., priority 1983, dated 1984)
Structures can show the parent of a compound that is named as a salt.

Tests used:
L-1210 leukemia = L-1210 leukemia transplanted tumor in mice, life span; assay type: in vivo; set-up: Mean Life Span: unit not given here; conditions: for Percent Increase In Life Span: over controls; for increase in life span: summary of Tables I and II, drug by itself, any dose level
Experimental: In this procedure, L-1210 leukemia was maintained by weekly passage of 10^5 L-1210 cells intraperitoneally into DBA/2 mice. Diluted ascitic fluid, 0.1 ml. (10^5 cells), was administered up to female B6D2F, mice weighing about 20 g. Drugs were administered intraperitoneally to the animals. Injections containing doxorubicin were given only on day 2 and the 3,4-dihydroxybenzohydroxamic acid was given on days 2, 3 and 4.

L1210 leukemia = conditions: from Elford et al. and van't Riet et al. publications; cited from earlier work

## O=C(NO)c1ccc(O)c(O)c1 [3,4-dihydroxybenzohydroxamic acid]
L-1210 leukemia; Table 1, 275 Mg./Kg. intraperitoneally, days 2, 3 and 4, four mice per group
  Mean Life Span: 12.75
L-1210 leukemia; Table 1, 275 Mg./Kg. intraperitoneally, days 2, 3 and 4
  Percent Increase In Life Span: 17%
L-1210 leukemia; Table 1, 275 Mg./Kg. intraperitoneally, days 2, 3 and 4, survivors calculated at day 60
  Percent Cures: 0%
L-1210 leukemia; Table 1, 430 Mg./Kg. intraperitoneally, days 2, 3 and 4, four mice per group
  Mean Life Span: 13.0
L-1210 leukemia; Table 1, 430 Mg./Kg. intraperitoneally, days 2, 3 and 4
  Percent Increase In Life Span: 19%
L-1210 leukemia; Table 1, 430 Mg./Kg. intraperitoneally, days 2, 3 and 4, survivors calculated at day 60
  Percent Cures: 0%
L-1210 leukemia; Table 1, 645 Mg./Kg. intraperitoneally, days 2, 3 and 4, four mice per group
  Mean Life Span: no better than control
L-1210 leukemia; Table 1, 645 Mg./Kg. intraperitoneally, days 2, 3 and 4, four mice per group, listed as 3,4-dihydroxy benzohydroxamic acid
  Mean Life Span: 11.0
L-1210 leukemia; Table 1, 645 Mg./Kg. intraperitoneally, days 2, 3 and 4
  Percent Increase In Life Span: 1%
L-1210 leukemia; Table 1, 645 Mg./Kg. intraperitoneally, days 2, 3 and 4, survivors calculated at day 60
  Percent Cures: 0%
L-1210 leukemia; Table II, 430 Mg./Kg. intraperitoneally, days 2, 3 and 4
  Percent Increase In Life Span: 32%
L-1210 leukemia; Table II, 430 Mg./Kg. intraperitoneally, days 2, 3 and 4, survivors calculated on day 35
  Percent Cures: 0%
L-1210 leukemia; Table II, 430 Mg./Kg. intraperitoneally, days 2, 3 and 4, three mice per group
  Mean Life Span: 12
L-1210 leukemia; Table II, 645 Mg./Kg. intraperitoneally, days 2, 3 and 4
  Percent Increase In Life Span: 49%
L-1210 leukemia; Table II, 645 Mg./Kg. intraperitoneally, days 2, 3 and 4, survivors calculated on day 35
  Percent Cures: 0%
L-1210 leukemia; Table II, 645 Mg./Kg. intraperitoneally, days 2, 3 and 4, three mice per group
  Mean Life Span: 13.6
L-1210 leukemia
  increase in life span: very little increase in life span
L1210 leukemia
  activity against L1210 leukemia: the most active

## COc1cccc2c1C(=O)c1c(O)c3c(c(O)c1C2=O)C[C@@](O)(C(=O)CO)C[C@@H]3O[C@H]1C[C@H](N)[C@H](O)[C@H](C)O1 [Doxorubicin hydrochloride]
L-1210 leukemia; Table 1, 6 Mg./Kg. intraperitoneally, day 2, four mice per group
  Mean Life Span: 14.5
L-1210 leukemia; Table 1, 6 Mg./Kg. intraperitoneally, day 2
  Percent Increase In Life Span: 33%
L-1210 leukemia; Table 1, 6 Mg./Kg. intraperitoneally, day 2, survivors calculated at day 60
  Percent Cures: 0%
L-1210 leukemia; Table 1, 17 Mg./Kg. intraperitoneally, day 2, four mice per group
  Mean Life Span: 28.5
L-1210 leukemia; Table 1, 17 Mg./Kg. intraperitoneally, day 2
  Percent Increase In Life Span: 161%
L-1210 leukemia; Table 1, 17 Mg./Kg. intraperitoneally, day 2, survivors calculated at day 60
  Percent Cures: 0%
L-1210 leukemia; Table 1, 29 Mg./Kg. intraperitoneally, day 2, four mice per group
  Mean Life Span: 27.75
L-1210 leukemia; Table 1, 29 Mg./Kg. intraperitoneally, day 2
  Percent Increase In Life Span: 155%
L-1210 leukemia; Table 1, 29 Mg./Kg. intraperitoneally, day 2, survivors calculated at day 60
  Percent Cures: 0%
L-1210 leukemia; Table II, 6 Mg./Kg. intraperitoneally, day 2
  Percent Increase In Life Span: 46%
L-1210 leukemia; Table II, 6 Mg./Kg. intraperitoneally, day 2, survivors calculated on day 35
  Percent Cures: 0%
L-1210 leukemia; Table II, 6 Mg./Kg. intraperitoneally, day 2, three mice per group
  Mean Life Span: 13.3
L-1210 leukemia; Table II, 17 Mg./Kg. intraperitoneally, day 2
  Percent Increase In Life Span: 76%
L-1210 leukemia; Table II, 17 Mg./Kg. intraperitoneally, day 2, survivors calculated on day 35
  Percent Cures: 0%
L-1210 leukemia; Table II, 17 Mg./Kg. intraperitoneally, day 2, three mice per group
  Mean Life Span: 16
L-1210 leukemia; Table II, 29 Mg./Kg. intraperitoneally, day 2
  Percent Increase In Life Span: 189%
L-1210 leukemia; Table II, 29 Mg./Kg. intraperitoneally, day 2, survivors calculated on day 35
  Percent Cures: 33%
L-1210 leukemia; Table II, 29 Mg./Kg. intraperitoneally, day 2, three mice per group
  Mean Life Span: 26.3
L-1210 leukemia
  increase in life span: substantial increase in life span
L-1210 leukemia; summary of Tables, by itself, at the highest dose level tested
  survivor: one
